Test results as given in ChEMBL document CHEMBL1122462, “Potential antiatherosclerotic agents. 4. [(Functionalized-alkyl)amino]benzoic acid analogues of cetaben” (1983).

Tests used:
Rattus norvegicus [1] = assay: In vivo Sterol lowering activity at dose as 0.01% of the diet; type: functional
Rattus norvegicus [2] = assay: In vivo sterol lowering activity at dose of 0.10 % of the diet; type: functional
Rattus norvegicus [3] = assay: In vivo Triglyceride lowering activity at dose as 0.03 % of the diet; type: functional
[4] = target: T1, Sterol O-acyltransferase 1 (Rattus norvegicus) (UniProt O70536); assay: In vitro inhibitory activity against acyl coenzyme A:cholesterol acyltransferase; parameters: concentration or dose not given beside the values; settings: concentration not given here
T1 sequence (whole entry): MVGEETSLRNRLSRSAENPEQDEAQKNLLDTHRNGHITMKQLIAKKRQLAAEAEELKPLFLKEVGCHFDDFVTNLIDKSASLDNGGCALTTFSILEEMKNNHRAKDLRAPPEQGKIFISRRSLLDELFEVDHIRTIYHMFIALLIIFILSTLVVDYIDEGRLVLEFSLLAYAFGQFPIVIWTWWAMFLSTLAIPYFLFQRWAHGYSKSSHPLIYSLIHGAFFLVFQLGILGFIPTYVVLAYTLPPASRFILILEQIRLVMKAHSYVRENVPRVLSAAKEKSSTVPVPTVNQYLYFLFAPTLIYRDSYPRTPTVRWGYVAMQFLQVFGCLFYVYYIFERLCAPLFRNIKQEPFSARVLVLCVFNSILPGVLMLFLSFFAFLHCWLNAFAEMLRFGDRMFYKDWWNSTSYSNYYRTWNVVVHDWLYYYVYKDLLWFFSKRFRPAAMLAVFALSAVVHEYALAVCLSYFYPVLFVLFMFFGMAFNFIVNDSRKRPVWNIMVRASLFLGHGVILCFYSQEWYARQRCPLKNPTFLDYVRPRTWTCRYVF

Rattus norvegicus [5] = assay: In vivo Triglyceride lowering activity at a dose of 0.10 % of the diet; type: functional
Rattus norvegicus [6] = assay: In vivo sterol lowering activity, dosed as 0.03 % of the diet; type: functional
Rattus norvegicus [7] = assay: In vivo Triglyceride lowering activity at dose as 0.01 % of the diet; type: functional

SMILES	serum sterol level, percent of control (Rattus norvegicus [1])	serum sterol level, % of control (Rattus norvegicus [2])	triglyceride lowering activity (Rattus norvegicus [3])	inhibition [4]	serum triglyceride level (% of control) (Rattus norvegicus [5])	serum sterol level, percent of control (Rattus norvegicus [6])	serum triglyceride level (% of control) (Rattus norvegicus [7])
CCCCCCCCCCCCCCC(C)Nc1ccc(C(=O)O)cc1 (stereo not given)	114%	<79%	68%	< 51%	<49%	95%	79%
CCOC(=O)c1ccc(NCCCCCCCCCCCCCC[Si](C)(C)C)cc1	84%	<53%	<66%	< 50%	<62%	<66%	<77%
CCCCCCCCCCC(=O)CCCCCNc1ccc(C(=O)OCC)cc1	109%	107%	86%	< 19%	81%	104%	103%
CCCCCCCCCCCCCCCCNc1ccc(C(=O)O)cc1 [CETABEN]	<72%	<54%	<45%	< 57%	<31%	<71%	<71%
CCCCCCCCCCC(C#N)CCCCCNc1ccc(C(=O)OCC)cc1 (stereo not given)	100%	87%	<69%	< 69%	<51%	97%	<66%
CCCCCCCCCCC(C)Nc1ccc(C(=O)O)cc1 (stereo not given)	94%	92%	<49%	< 51%	<58%	<90%	<42%
CCOC(=O)c1ccc(NCC(F)(F)C(F)(F)C(F)(F)C(F)(F)C(F)(F)C(F)(F)C(F)(F)F)cc1	<81%	<44%	<43%	7%	<35%	<65%	<47%
CCCCCC(=O)CCCCCCCCCCNc1ccc(C(=O)OCC)cc1	99%	89%	<58%	< 44%	<42%	100%	<64%
CCOC(=O)c1ccc(NCCCCCCCCCCCCCCCC(=O)OC)cc1	105%	104%	173%	0%	129%	110%	140%
CCOC(=O)c1ccc(NC(=O)CCCCCCCCCCCCC[Si](C)(C)C)cc1	99%	101%	91%	< 21%	97%	98%	99%
CCSCCCCCCCCCCCCCCCCNc1ccc(C(=O)O)cc1	91%	88%	<58%	< 36%	<59%	91%	62%
O=C(O)c1ccc(NCCCCCCCCCCCNc2ccc(C(=O)O)cc2)cc1	99%	87%	85%	< 30%	84%	94%	<68%
O=C(O)c1ccc(NCC(F)(F)C(F)(F)C(F)(F)C(F)(F)C(F)(F)C(F)(F)C(F)(F)F)cc1	<87%	<59%	<40%	< 42%	<31%	<66%	<51%
O=C(O)c1ccc(NCCCCCCCCCCCSCc2ccccc2)cc1	99%	90%	<52%	< 54%	<51%	95%	<55%
CCOC(=O)c1ccc(NCCC[Si](C)(C)C)cc1	99%	<77%	<63%	< 59%	<54%	86%	<60%
COCCCCCCCCCCCCCCCCNc1ccc(C(=O)O)cc1	97%	<86%	<73%	< 43%	<52%	96%	76%
CCOC(=O)c1ccc(NCCCCCCCCCCCCCCCCBr)cc1	99%	93%	84%	10%	100%	98%	100%
CCOC(=O)c1ccc(NCCCCCCCCCCC(F)(F)F)cc1	<86%	<87%	<61%	< 24%	<46%	88%	<74%
O=C(O)c1ccc(NCCCCCCCCCCCS)cc1	92%	<84%	<61%	< 26%	<50%	89%	<65%
CCOC(=O)c1ccc(NC(=O)CCCCCCCCCCCCCCCBr)cc1	96%	<86%	94%	< 32%	79%	93%	84%
CCCCSCCCCCCCCCCCNc1ccc(C(=O)O)cc1	91%	<78%	<71%	< 40%	<62%	91%	79%
CCCCCCCCCCC(N)CCCCCNc1ccc(C(=O)[O-])cc1.[Na+] (stereo not given)	100%	98%	107%	7%	120%	117%	68%
CCOC(=O)c1ccc(NCCCCCCCCCCCCCCCC(=O)O)cc1	100%	106%	133%	4%	147%	106%	99%
C[Si](C)(C)CCCCCCCCCCCNc1ccc(C(=O)O)cc1	<79%	<44%	<54%		<25%	<69%	<67%
CC(C)(C)CCCCCCCCCCCCCCNc1ccc(C(=O)O)cc1	<69%	<48%	<42%		<20%	<53%	<59%
CCCCCCCCCC/C(CCCCCNc1ccc(C(=O)O)cc1)=N/O	86%	<75%	<30%		<31%	<84%	<52%
CCCCCCCCCCCCCCCCN(CS(=O)(=O)[O-])c1ccc(C(=O)O)cc1.[Na+]	91%	<72%	<57%		<49%	<87%	79%
